The results in this text go back to patent US12655106B2 (Eikonizo Therapeutics, Inc., priority 2021, dated 2026).

Usually IC50 stands for the concentration that gives 50% inhibition. Low readings indicate higher potency, high ones lower potency.

Molecules are shown by their SMILES.

For one assay, the target named is T1, Full length Human HDAC8 (Homo sapiens, UniProt Q9BY41).
T1 construct: Full length Human HDAC8; HIS (N); host or cells: baculovirus expression system
T1 sequence (Q9BY41 1-377): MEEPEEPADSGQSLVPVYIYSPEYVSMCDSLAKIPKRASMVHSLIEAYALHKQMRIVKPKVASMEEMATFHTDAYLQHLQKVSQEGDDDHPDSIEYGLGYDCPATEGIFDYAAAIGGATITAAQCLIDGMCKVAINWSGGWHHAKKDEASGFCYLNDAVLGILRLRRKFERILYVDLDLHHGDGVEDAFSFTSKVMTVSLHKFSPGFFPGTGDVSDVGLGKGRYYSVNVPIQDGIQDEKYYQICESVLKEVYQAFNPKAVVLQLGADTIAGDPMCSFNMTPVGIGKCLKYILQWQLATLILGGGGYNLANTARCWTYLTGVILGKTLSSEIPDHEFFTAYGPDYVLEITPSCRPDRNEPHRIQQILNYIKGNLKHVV
Description: Caliper endpoint assay for HDAC enzymatic activity (HDAC8). To be noted: in vitro enzymatic, 30 min pre-incubation, 1 μM substrate peptide. Format: biochemical.

For a further assay, the target named is T2, Full length Human HDAC6 (Homo sapiens, UniProt Q9UBN7).
T2 construct: Full length Human HDAC6; FLAG (C); host or cells: baculovirus expression system
T2 sequence (Q9UBN7 1-1215): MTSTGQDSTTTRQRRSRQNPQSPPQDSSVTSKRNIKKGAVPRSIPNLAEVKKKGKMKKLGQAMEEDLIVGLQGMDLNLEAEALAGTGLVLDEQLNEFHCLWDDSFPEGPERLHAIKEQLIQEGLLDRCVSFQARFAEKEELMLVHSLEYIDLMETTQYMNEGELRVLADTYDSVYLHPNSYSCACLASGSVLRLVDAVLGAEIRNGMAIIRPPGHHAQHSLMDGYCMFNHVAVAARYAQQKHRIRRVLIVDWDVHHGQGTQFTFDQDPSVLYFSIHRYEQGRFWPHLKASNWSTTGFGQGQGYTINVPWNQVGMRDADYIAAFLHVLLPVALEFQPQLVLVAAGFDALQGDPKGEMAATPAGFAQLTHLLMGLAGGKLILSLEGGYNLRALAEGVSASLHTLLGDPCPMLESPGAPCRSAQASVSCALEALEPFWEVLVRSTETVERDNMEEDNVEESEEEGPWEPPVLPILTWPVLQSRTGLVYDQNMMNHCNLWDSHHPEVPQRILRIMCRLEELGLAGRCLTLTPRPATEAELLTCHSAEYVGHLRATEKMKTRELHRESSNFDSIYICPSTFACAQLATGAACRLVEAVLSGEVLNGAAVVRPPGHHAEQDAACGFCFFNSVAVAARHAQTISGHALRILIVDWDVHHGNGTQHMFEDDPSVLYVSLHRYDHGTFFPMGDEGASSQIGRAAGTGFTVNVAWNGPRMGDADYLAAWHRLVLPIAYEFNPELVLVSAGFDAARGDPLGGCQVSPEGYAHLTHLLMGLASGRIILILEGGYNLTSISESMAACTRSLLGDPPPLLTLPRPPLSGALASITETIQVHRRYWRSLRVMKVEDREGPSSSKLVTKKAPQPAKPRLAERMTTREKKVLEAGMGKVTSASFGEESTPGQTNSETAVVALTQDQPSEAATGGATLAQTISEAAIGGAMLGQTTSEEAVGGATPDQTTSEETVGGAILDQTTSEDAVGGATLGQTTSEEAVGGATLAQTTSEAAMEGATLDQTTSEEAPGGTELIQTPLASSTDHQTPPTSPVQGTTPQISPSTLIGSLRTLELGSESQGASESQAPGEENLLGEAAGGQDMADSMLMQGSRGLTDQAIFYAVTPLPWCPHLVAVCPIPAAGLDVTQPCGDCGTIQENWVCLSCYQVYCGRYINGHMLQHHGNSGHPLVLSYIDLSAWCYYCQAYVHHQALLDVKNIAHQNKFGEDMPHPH
Description: Caliper endpoint assay for HDAC enzymatic activity (HDAC6). Format: biochemical. To be noted: for IC50: in vitro enzymatic, Caliper endpoint assay, 30 min pre-incubation, 1 μM substrate peptide; for Selectivity (6 v 8): ratio of HDAC8 IC50/HDAC6 IC50.

For `CC[C@@H]1Cc2c(F)cc(C(=O)NO)cc2CN1CC12CC(NC)(C1)C2` (single isomer, unassigned) [Compound 524], the IC50 against Full length Human HDAC8 lay in the range of 1 to 10 µM. Besides, at Full length Human HDAC6, the half-inhibitory concentration (IC50) is 0.001 to 0.1 µM and the “Selectivity (6 v 8)” value was “III (III: >10-100)”.
The matching figures for `O=C(NO)c1ccc2c(c1F)CCN(C1CC3(CCCCC3)C1)C2` [Compound 506, 5-fluoro-N-hydroxy-2-(spiro[3.5]nonan-2-yl)-1,2,3,4-tetrahydroisoquinoline-6-carboxamide]: 10 to 100 µM, greater than 100 µM and “V (V: >1000)”.
The compound `CC[C@@H]1Cc2c(F)cc(C(=O)NO)cc2CN1CC12CC3CC(CC(C3)O1)C2` (single isomer, unassigned) [Compound 509] showed an IC50 on Full length Human HDAC8 of 1 to 10 µM. At Full length Human HDAC6, the IC50 lay within 0.001 to 0.1 µM and the “Selectivity (6 v 8)” value was “III (III: >10-100)”.
The matching figures for `CC[C@H]1Cc2c(F)cc(C(=O)NO)cc2CN1C[C@]12CN[C@H](CO1)C2` (single isomer, unassigned) [Compound 549]: 10 to 100 µM, 0.001 to 0.1 µM and “IV (IV: >100-1000)”.
With `O=C(NO)c1cc(F)c2c(c1)CCN([C@@H]1CCC3(CCCCC3)C1)C2` (single isomer, unassigned) [Compound 110], the results for the IC50 on Full length Human HDAC8 and at Full length Human HDAC6 were 10 to 100 µM and 0.001 to 0.1 µM, respectively.
The matching figures for `C[C@@H]1C[C@@H]2c3c(F)cc(C(=O)NO)cc3CCN2C1` (single isomer, unassigned) [Compound 151]: 1 to 10 µM and 0.001 to 0.1 µM.
Consider `CC[C@@H]1Cc2c(F)cc(C(=O)NO)cc2CN1C1CC2(C1)CN(C)C2` (single isomer, unassigned) [Compound 584], for which the IC50 was 10 to 100 µM at Full length Human HDAC8 and 0.1 to 1 µM against Full length Human HDAC6. Moreover, at Full length Human HDAC6, the “Selectivity (6 v 8)” value was “IV (IV: >100-1000)”.
With `CC[C@H]1Cc2c(F)cc(C(=O)NO)cc2CN1CC1CCC2(CCC2)CC1` (single isomer, unassigned) [Compound 528], the IC50 on Full length Human HDAC8 was 1 to 10 µM; on Full length Human HDAC6 it was 0.001 to 0.1 µM. Further, the “Selectivity (6 v 8)” value on Full length Human HDAC6 is recorded as “III (III: >10-100)”.
Compound `O=C(NO)c1cc(F)c2c(c1)CCN(C1CC3(CCOC3)C1)C2` (single isomer, unassigned) [Compound 188, 8-fluoro-N-hydroxy-2-(6-oxaspiro[3.4]octan-2-yl)-1,2,3,4-tetrahydroisoquinoline-6-carboxamide] displayed a half-maximal inhibitory concentration (IC50) on Full length Human HDAC8 of 10 to 100 µM. On Full length Human HDAC6, the IC50 is 0.001 to 0.1 µM and the “Selectivity (6 v 8)” value is “IV (IV: >100-1000)”.
For the compound `CN1CC[C@]2(CC[C@@H](N3CCc4cc(C(=O)NO)cc(F)c4C3)C2)C1` (single isomer, unassigned) [Compound 402], the IC50 at Full length Human HDAC8 was in the range of 1 to 10 µM; against Full length Human HDAC6, 0.001 to 0.1 µM. Moreover, on Full length Human HDAC6, the “Selectivity (6 v 8)” value is given as “IV (IV: >100-1000)”.
Take `CN1CC2(CCC(N3CCc4cc(C(=O)NO)cc(F)c4C3)C2)C1` (stereo not drawn) [Compound 389, 8-fluoro-2-(2-methyl-2-azaspiro[3.4]octan-6-yl)-3,4-dihydro-1H-isoquinoline-6-carbohydroxamic acid]: the half-maximal inhibitory concentration (IC50) on Full length Human HDAC8 is greater than 100 µM. Further, at Full length Human HDAC6, the IC50 is 0.001 to 0.1 µM and the “Selectivity (6 v 8)” value is “V (V: >1000)”.
The corresponding values for `O=C(NO)c1cc(F)c2c(c1)CCN(CC1CC3CCC(C1)N3C1CC1)C2` (stereo not drawn) [Compound 484, 2-[(8-cyclopropyl-8-azabicyclo[3.2.1]octan-3-yl)methyl]-8-fluoro-3,4-dihydro-1H-isoquinoline-6-carbohydroxamic acid] are 1 to 10 µM, 0.001 to 0.1 µM and “IV (IV: >100-1000)”.
As to `CC[C@H]1Cc2c(F)cc(C(=O)NO)cc2CN1CC1C2CNCC1C2` (single isomer, unassigned) [Compound 529], the IC50 against Full length Human HDAC8 was 10 to 100 µM; against Full length Human HDAC6, 0.001 to 0.1 µM. On Full length Human HDAC6, the “Selectivity (6 v 8)” value is given as “IV (IV: >100-1000)”.
With `O=C(NO)c1cc(F)c2c(c1)CCN([C@H]1C[C@]3(CCCCO3)C1)C2` (single isomer, unassigned) [Compound 339, 8-fluoro-2-(5-oxaspiro[3.5]nonan-2-yl)-3,4-dihydro-1H-isoquinoline-6-carbohydroxamic acid], the IC50 is 10 to 100 µM against Full length Human HDAC8 and 0.001 to 0.1 µM against Full length Human HDAC6. Further, the “Selectivity (6 v 8)” value on Full length Human HDAC6 is on record as “IV (IV: >100-1000)”.
The matching figures for `O=C(NO)c1cc(F)c2c(c1)CN1CCCC[C@@H]1C2` [Compound 145]: 10 to 100 µM, 0.001 to 0.1 µM and “IV (IV: >100-1000)”.
The matching figures for `CC(=O)N1CC2(CCC(N3CCc4cc(C(=O)NO)cc(F)c4C3)CC2)C1` [Compound 429, 2-(2-acetyl-2-azaspiro[3.5]nonan-7-yl)-8-fluoro-3,4-dihydro-1H-isoquinoline-6-carbohydroxamic acid]: 10 to 100 µM, 0.001 to 0.1 µM and “IV (IV: >100-1000)”.
The matching figures for `CN1CCCCC12CC(N1CCc3cc(C(=O)NO)cc(F)c3C1)C2` (stereo not drawn) [Compound 352, 8-fluoro-2-(5-methyl-5-azaspiro[3.5]nonan-2-yl)-3,4-dihydro-1H-isoquinoline-6-carbohydroxamic acid]: greater than 100 µM, 0.001 to 0.1 µM and “V (V: >1000)”.
`CC[C@@H]1Cc2c(F)cc(C(=O)NO)cc2CN1C[C@H]1CCCCO1` (single isomer, unassigned) [Compound 230] gave an IC50 at Full length Human HDAC8 of 1 to 10 µM. Further, at Full length Human HDAC6, the IC50 lay in the range of 0.001 to 0.1 µM and the “Selectivity (6 v 8)” value is “III (III: >10-100)”.
For `CN1Cc2cc(C(=O)NO)ccc2[C@@H]2CCCN21` (single isomer, unassigned) [Compound 160], the IC50 against Full length Human HDAC8 and against Full length Human HDAC6 was 0.1 to 1 µM in each case.
With `CN1CC[C@@]2(CC[C@@H]2N2CCc3cc(C(=O)NO)cc(F)c3C2)C1` (single isomer, unassigned) [Compound 329], on Full length Human HDAC8, the IC50 lay in the range of 1 to 10 µM. Further, on Full length Human HDAC6, the IC50 is 0.001 to 0.1 µM and the “Selectivity (6 v 8)” value is “III (III: >10-100)”.
The matching figures for `CC[C@H]1Cc2c(F)cc(C(=O)NO)cc2CN1CC12CC(NC(C)=O)(C1)C2` (single isomer, unassigned) [Compound 525]: 1 to 10 µM, 0.001 to 0.1 µM and “III (III: >10-100)”.
The corresponding values for `CC(=O)N1CC2(CCC(N3CCc4cc(C(=O)NO)cc(F)c4C3)C2)C1` (stereo not drawn) [Compound 391, 2-(2-acetyl-2-azaspiro[3.4]octan-6-yl)-8-fluoro-N-hydroxy-1,2,3,4-tetrahydroisoquinoline-6-carboxamide] are 10 to 100 µM, 0.001 to 0.1 µM and “IV (IV: >100-1000)”.
The corresponding values for `CN1CC[C@]2(CC[C@@H]2N2CCc3cc(C(=O)NO)cc(F)c3C2)C1` (single isomer, unassigned) [Compound 330] are 10 to 100 µM, 0.001 to 0.1 µM and “IV (IV: >100-1000)”.
`O=C(NO)c1cc(F)c2c(c1)CCN([C@@H]1CC[C@]13CCOC3)C2` (single isomer, unassigned) [Compound 318]: at Full length Human HDAC8, the concentration for half-maximal inhibition (IC50) was 10 to 100 µM. At Full length Human HDAC6, the concentration for half-maximal inhibition (IC50) lay within 0.001 to 0.1 µM and the “Selectivity (6 v 8)” value is listed as “V (V: >1000)”.
